Measured values from ChEMBL document CHEMBL1143514 (Bioorg Med Chem Lett, 2005).

Legend:
[1] = target: Cyclin-dependent kinase 1/cyclin B (Homo sapiens, UniProt P06493); test: Inhibitory concentration against human Cyclin B-cyclin-dependent kinase 1 was observed; type: protein-complex assay
[2] = target: Cyclin-dependent kinase 4/cyclin D1 (Homo sapiens, UniProt P11802); test: Inhibitory concentration against human Cyclin D1-cyclin-dependent kinase 4 was observed; type: protein-complex assay
[3] = target: Cyclin-dependent kinase 2/cyclin E (Homo sapiens, UniProt P24941); test: Inhibitory concentration against human Cyclin E-cyclin-dependent kinase 2 was observed; type: protein-complex assay
HCT-116 = test: Inhibitory concentration against proliferation of human HCT116 cells was observed by MTT assay; type: functional, cell-based

Cyclin-dependent kinase 4/cyclin D1, sequence (P11802 whole entry): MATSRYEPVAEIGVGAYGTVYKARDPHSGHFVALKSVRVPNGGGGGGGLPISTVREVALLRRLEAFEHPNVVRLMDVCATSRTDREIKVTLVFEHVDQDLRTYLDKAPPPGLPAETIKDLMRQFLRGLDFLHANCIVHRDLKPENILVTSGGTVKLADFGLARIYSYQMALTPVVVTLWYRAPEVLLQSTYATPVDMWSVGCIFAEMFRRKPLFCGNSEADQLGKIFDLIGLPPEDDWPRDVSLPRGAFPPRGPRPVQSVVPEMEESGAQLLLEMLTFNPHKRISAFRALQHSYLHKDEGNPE
Cyclin-dependent kinase 4/cyclin D1, sequence (P24385 whole entry, further chain): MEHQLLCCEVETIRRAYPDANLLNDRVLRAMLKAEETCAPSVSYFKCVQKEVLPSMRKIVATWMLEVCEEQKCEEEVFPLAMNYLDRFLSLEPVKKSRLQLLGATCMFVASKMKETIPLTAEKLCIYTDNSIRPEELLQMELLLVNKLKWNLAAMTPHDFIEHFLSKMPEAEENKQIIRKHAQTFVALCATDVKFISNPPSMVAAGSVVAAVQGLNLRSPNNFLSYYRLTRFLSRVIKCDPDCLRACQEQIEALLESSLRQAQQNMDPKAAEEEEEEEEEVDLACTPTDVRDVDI

Compound | IC50 [1] | IC50 [2] | IC50 [3] | IC50 (HCT-116)
CN(C)S(=O)(=O)c1cccc(Nc2cn3cc(C(=O)c4c(Cl)cccc4Cl)ccc3n2)c1 | 9.26 µM | > 20 µM | 12.1 µM | –
NC(=O)c1cccc(Nc2cn3cc(C(=O)c4c(Cl)cccc4Cl)ccc3n2)c1 | 1.92 µM | 3.95 µM | 2.72 µM | –
NS(=O)(=O)c1ccc(Nc2cn3cc(C(=O)c4c(Cl)cccc4Cl)ccc3n2)cc1 | 0.39 µM | 1.34 µM | – | 5.5 µM
NC(=O)c1ccc(Nc2cn3cc(C(=O)c4c(Cl)cccc4Cl)ccc3n2)cc1 | 0.58 µM | 1.61 µM | 1.63 µM | –
CN(C)S(=O)(=O)c1ccc(Nc2cn3cc(C(=O)c4c(Cl)cccc4Cl)ccc3n2)cc1 | 0.97 µM | 2.16 µM | 1.54 µM | –
O=C(O)c1ccc(Nc2cn3cc(C(=O)c4c(Cl)cccc4Cl)ccc3n2)cc1 | 0.45 µM | 4.99 µM | 0.74 µM | –
O=C(NS(=O)(=O)c1ccc(Nc2cn3cc(C(=O)c4c(Cl)cccc4Cl)ccc3n2)cc1)c1ccccc1 | 0.25 µM | 3.84 µM | 0.67 µM | –
CS(=O)(=O)c1cccc(Nc2cn3cc(C(=O)c4c(Cl)cccc4Cl)ccc3n2)c1 | 1.7 µM | 3.14 µM | 2.86 µM | –
O=C(c1ccc2nc(Nc3ccncc3)cn2c1)c1c(Cl)cccc1Cl | > 20 µM | > 20 µM | > 20 µM | –

Further lines, results first:

IC50 [1] | IC50 [2] | IC50 [3] | IC50 (HCT-116) | Compound
4.8 µM | 11.9 µM | 17.7 µM | – | CSc1cccc(Nc2cn3cc(C(=O)c4c(Cl)cccc4Cl)ccc3n2)c1
3.04 µM | 7.4 µM | 13.8 µM | – | CSc1ccc(Nc2cn3cc(C(=O)c4c(Cl)cccc4Cl)ccc3n2)cc1
0.52 µM | 1.22 µM | 1.21 µM | – | CS(=O)(=O)c1ccc(Nc2cn3cc(C(=O)c4c(Cl)cccc4Cl)ccc3n2)cc1
0.16 µM | 1.29 µM | 0.25 µM | – | N=C(N)NS(=O)(=O)c1ccc(Nc2cn3cc(C(=O)c4c(Cl)cccc4Cl)ccc3n2)cc1
> 20 µM | > 20 µM | > 20 µM | – | O=C(c1ccc2nc(Nc3ccc(Oc4ccccc4)cc3)cn2c1)c1c(Cl)cccc1Cl
